≈ marks a conversion by molar mass, not a printed value.
Tests used:
Assay in all cases: ≥ marks a high value that may be exact or a test limit, other limits are often not marked, values filed in µg/mL are converted to µM
[1] = system: Pseudomonas aeruginosa ATCC 9027
[2] = system: Staphylococcus aureus ATCC 29737
[3] = system: Escherichia coli ATCC 25922
[4] = system: Staphylococcus epidermidis ATCC 12228
[5] = system: Candida albicans ATCC 10231
[6] = system: Salmonella enterica subsp. enterica serovar Enteritidis ATCC 13076
[7] = system: Streptococcus mutans ATCC 25175
[8] = system: Pseudomonas putida ATCC 17426
[9] = system: Bacillus subtilis ATCC 62037
[10] = system: Cryptococcus neoformans ATCC 34881
[11] = system: Saccharomyces cerevisiae ATCC 44774
[12] = system: Staphylococcus aureus ATCC 15752
[13] = system: Escherichia coli ATCC 27325
[14] = system: Staphylococcus aureus USA 300
[15] = system: Candida albicans ATCC 90028
[16] = system: Staphylococcus aureus USA 100
Escherichia coli BW25113 = system: Escherichia coli BW25113
Escherichia coli AS1.349 = system: Escherichia coli AS1.349
Bacillus cereus AS1.126 = system: Bacillus cereus AS1.126
[17] = system: Enterococcus faecium CGMCC 1.2334
[18] = system: Pseudomonas aeruginosa CGMCC 1.860
[19] = system: Staphylococcus aureus AS1.72
[20] = system: Lactococcus lactis AS1.1690
[21] = system: Enterococcus faecalis CGMCC 1.595
[22] = system: Cronobacter sakazakii DPC 6440
[23] = system: Listeria monocytogenes LO28

Structure (SMILES): CC[C@H](C)[C@H](N)C(=O)N[C@@H](CCCN=C(N)N)C(=O)N[C@H](C(=O)N[C@@H](CCCCN)C(=O)N[C@H](C(=O)N[C@@H](CCCN=C(N)N)C(=O)N[C@H](C(=O)N[C@@H](CCCCN)C(=O)N[C@H](C(=O)N[C@@H](CCCN=C(N)N)C(=O)N[C@H](C(=O)N[C@@H](CCCCN)C(N)=O)C(C)C)[C@@H](C)CC)C(C)C)[C@@H](C)CC)C(C)C [IRVKIRVKIRVK]
- MIC [1]: 41.4 µM (≈ 62.5 µg/mL)
- MIC [2]: 20.8 µM (≈ 31.3 µg/mL)
- MIC [3]: 10.3 µM (≈ 15.6 µg/mL)
- MIC [4]: 1.33 µM (≈ 2 µg/mL)
- MIC [5]: 82.9 µM (≈ 125 µg/mL)

Structure (SMILES): CC(C)[C@H](NC(=O)[C@H](CCCCN)NC(=O)CNC(=O)CNC(=O)[C@H](CCC(N)=O)NC(=O)[C@H](CCCCN)NC(=O)CNC(=O)[C@H](CCCN=C(N)N)NC(=O)CNC(=O)[C@@H](N)CCCCN)C(=O)N[C@@H](CCCN=C(N)N)C(=O)N[C@@H](C)C(=O)N[C@@H](CCCCN)C(=O)N[C@@H](C)C(=O)N[C@@H](CCCCN)C(=O)O [KGRGKQGGKVRAKAK]
- MIC [6]: 2.55 µM (≈ 4 µg/mL)
- MIC [7]: 1.27 µM (≈ 2 µg/mL)
- MIC [8]: 0.637 µM (≈ 1 µg/mL)
- MIC [9]: 0.637 µM (≈ 1 µg/mL)
- MIC [10]: 0.637 µM (≈ 1 µg/mL)
- MIC [11]: 0.637 µM (≈ 1 µg/mL)
- MIC [12]: 2.55 µM (≈ 4 µg/mL)
- MIC [13]: 0.637 µM (≈ 1 µg/mL)
- MIC [5]: 0.637 µM (≈ 1 µg/mL)

Structure (SMILES): CC(=O)N[C@@H](CCCCN)C(=O)N1CCC[C@H]1C(=O)N[C@H](C(N)=O)C(C)C [KPV]
- MIC [14]: ≥ 100 µM
- MIC [15]: ≥ 100 µM
- MIC [1]: > 100 µM
- MIC [16]: ≥ 100 µM

Structure (SMILES): CC(C)[C@H](NC(=O)[C@H](CCCCN)NC(=O)CNC(=O)CNC(=O)[C@H](CCC(N)=O)NC(=O)[C@H](CCCCN)NC(=O)CNC(=O)[C@H](CCCN=C(N)N)NC(=O)[C@@H](N)CCCCN)C(=O)N[C@@H](CCCN=C(N)N)C(=O)N[C@@H](C)C(=O)N[C@@H](CCCCN)C(=O)N[C@@H](C)C(=O)N[C@@H](CCCCN)C(=O)N[C@H](C(=O)N[C@@H](CCCN=C(N)N)C(=O)N[C@@H](CO)C(=O)N[C@@H](CO)C(=O)O)[C@@H](C)O [KRGKQGGKVRAKAKTRSS]
- MIC [6]: 8.23 µM (≈ 16 µg/mL)
- MIC [7]: 16.5 µM (≈ 32 µg/mL)
- MIC [8]: 8.23 µM (≈ 16 µg/mL)
- MIC [9]: 8.23 µM (≈ 16 µg/mL)
- MIC [10]: 4.12 µM (≈ 8 µg/mL)
- MIC [11]: 8.23 µM (≈ 16 µg/mL)
- MIC [12]: 16.5 µM (≈ 32 µg/mL)
- MIC [13]: 4.12 µM (≈ 8 µg/mL)
- MIC [5]: 8.23 µM (≈ 16 µg/mL)

Structure (SMILES): CC(C)C[C@H](NC(=O)CNC(=O)[C@H](C)NC(=O)[C@@H](N)CCCN=C(N)N)C(=O)N[C@@H](CCC(N)=O)C(=O)N[C@@H](Cc1ccccc1)C(=O)N1CCC[C@H]1C(=O)N[C@H](C(=O)NCC(=O)N[C@@H](CCCCN)C(=O)N[C@@H](CC(C)C)C(=O)N[C@@H](CC(C)C)C(=O)N[C@@H](CCCCN)C(=O)N[C@@H](CCCCN)C(=O)N[C@@H](CC(C)C)C(=O)N[C@@H](CC(C)C)C(=O)N[C@@H](CCCCN)C(=O)N[C@@H](CCCN=C(N)N)C(=O)N[C@@H](CC(C)C)C(=O)N[C@@H](CCCCN)C(=O)N[C@@H](CCCN=C(N)N)C(=O)O)C(C)C [RAGLQFPVGKLLKKLLKRLKR]
- MIC [6]: 0.406 µM (≈ 1 µg/mL)
- MIC [7]: 0.812 µM (≈ 2 µg/mL)
- MIC [8]: 0.812 µM (≈ 2 µg/mL)
- MIC [9]: 0.812 µM (≈ 2 µg/mL)
- MIC [10]: 0.812 µM (≈ 2 µg/mL)
- MIC [11]: 0.812 µM (≈ 2 µg/mL)
- MIC [12]: 0.812 µM (≈ 2 µg/mL)
- MIC [13]: 0.812 µM (≈ 2 µg/mL)
- MIC [5]: 0.812 µM (≈ 2 µg/mL)

Structure (SMILES): CC[C@H](C)[C@H](NC(=O)[C@@H]1CCCN1C(=O)[C@@H]1CCCN1C(=O)[C@H](CCCN=C(N)N)NC(=O)[C@H](Cc1ccccc1)NC(=O)[C@@H](N)CCCN=C(N)N)C(=O)N[C@@H](CCCN=C(N)N)C(=O)N[C@@H](CCCN=C(N)N)C(=O)N1CCC[C@H]1C(=O)N1CCC[C@H]1C(=O)N[C@H](C(=O)N[C@@H](CCCN=C(N)N)C(=O)N1CCC[C@H]1C(=O)N1CCC[C@H]1C(=O)N[C@@H](Cc1ccccc1)C(=O)N[C@@H](Cc1ccc(O)cc1)C(=O)N[C@@H](Cc1c[nH]c2ccccc12)C(=O)O)[C@@H](C)CC [RFRPPIRRPPIRPPFYW]
- MIC (Escherichia coli BW25113): 16 µM (≈ 36 µg/mL)

Structure (SMILES): C[C@H](NC(=O)[C@H](CCCN=C(N)N)NC(=O)[C@H](Cc1cnc[nH]1)NC(=O)[C@H](Cc1c[nH]c2ccccc12)NC(=O)[C@H](Cc1ccccc1)NC(=O)[C@H](CCCN=C(N)N)NC(=O)[C@@H](N)CCCN=C(N)N)C(=O)N[C@@H](Cc1cnc[nH]1)C(=O)O [RRFWHRAH]
- MIC (Escherichia coli AS1.349): ≥ 100 µM
- MIC (Bacillus cereus AS1.126): ≥ 100 µM
- MIC [17]: ≥ 100 µM
- MIC [18]: ≥ 100 µM
- MIC [19]: ≥ 100 µM
- MIC [20]: ≥ 100 µM
- MIC [21]: ≥ 100 µM

Structure (SMILES): CC(C)C[C@H](NC(=O)[C@H](CCCCN)NC(=O)[C@H](CCCN=C(N)N)NC(=O)[C@H](Cc1cnc[nH]1)NC(=O)[C@H](C)NC(=O)[C@H](CCCN=C(N)N)NC(=O)[C@H](Cc1cnc[nH]1)NC(=O)[C@H](Cc1c[nH]c2ccccc12)NC(=O)[C@H](Cc1ccccc1)NC(=O)[C@H](CCCN=C(N)N)NC(=O)[C@H](CCCN=C(N)N)NC(=O)[C@H](Cc1c[nH]c2ccccc12)NC(=O)[C@H](Cc1cnc[nH]1)NC(=O)[C@H](CCCN=C(N)N)NC(=O)[C@H](Cc1c[nH]c2ccccc12)NC(=O)[C@@H](NC(=O)[C@H](CCCCN)NC(=O)[C@@H](N)CO)C(C)C)C(=O)O [SKVWRHWRRFWHRAHRKL]
- MIC (Escherichia coli AS1.349): 6.25 µM (≈ 15.9 µg/mL)
- MIC (Bacillus cereus AS1.126): 3.13 µM (≈ 7.96 µg/mL)
- MIC [17]: 3.13 µM (≈ 7.96 µg/mL)
- MIC [18]: 1.56 µM (≈ 3.97 µg/mL)
- MIC [19]: 3.13 µM (≈ 7.96 µg/mL)
- MIC [20]: 3.13 µM (≈ 7.96 µg/mL)
- MIC [21]: 1.56 µM (≈ 3.97 µg/mL)

Structure (SMILES): CC(C)[C@H](N)C(=O)N[C@@H](Cc1c[nH]c2ccccc12)C(=O)N[C@@H](CCCN=C(N)N)C(=O)N[C@@H](Cc1cnc[nH]1)C(=O)N[C@@H](Cc1c[nH]c2ccccc12)C(=O)N[C@@H](CCCN=C(N)N)C(=O)N[C@@H](CCCN=C(N)N)C(=O)N[C@@H](Cc1ccccc1)C(=O)N[C@@H](Cc1c[nH]c2ccccc12)C(=O)N[C@@H](Cc1cnc[nH]1)C(=O)N[C@@H](CCCN=C(N)N)C(=O)O [VWRHWRRFWHR]
- MIC (Escherichia coli AS1.349): 6.25 µM (≈ 10.8 µg/mL)
- MIC (Bacillus cereus AS1.126): 3.13 µM (≈ 5.39 µg/mL)
- MIC [17]: 3.13 µM (≈ 5.39 µg/mL)
- MIC [18]: 3.13 µM (≈ 5.39 µg/mL)
- MIC [19]: 3.13 µM (≈ 5.39 µg/mL)
- MIC [20]: 6.25 µM (≈ 10.8 µg/mL)
- MIC [21]: 3.13 µM (≈ 5.39 µg/mL)

Structure (SMILES): CC[C@H](C)[C@H](NC(=O)[C@@H](N)Cc1c[nH]c2ccccc12)C(=O)N[C@@H](CCC(N)=O)C(=O)N1CCC[C@H]1C(=O)N[C@@H](C)C(=O)N[C@H](C(=O)N[C@@H](C)C(=O)N[C@H](C(=O)N[C@H](C(=O)N1CCC[C@H]1C(=O)N[C@@H](Cc1ccc(O)cc1)C(=O)N[C@H](C(=O)N[C@@H](C)C(=O)N[C@@H](Cc1ccc(O)cc1)C(=O)N[C@@H](CC(C)C)C(=O)O)C(C)C)[C@@H](C)CC)C(C)C)[C@@H](C)O [WIQPATAVIPYVAYL]
- MIC [22]: ≥ 625 µM
- MIC [23]: ≥ 156 µM

Structure (SMILES): CC[C@H](C)[C@H](NC(=O)[C@@H](N)Cc1c[nH]c2ccccc12)C(=O)N[C@@H](CCC(N)=O)C(=O)N1CCC[C@H]1C(=O)N[C@@H](CCCCN)C(=O)N[C@H](C(=O)N[C@@H](CCCCN)C(=O)N[C@H](C(=O)N[C@H](C(=O)N1CCC[C@H]1C(=O)N[C@@H](Cc1c[nH]c2ccccc12)C(=O)N[C@@H](Cc1c[nH]c2ccccc12)C(=O)N[C@@H](Cc1c[nH]c2ccccc12)C(=O)N[C@@H](Cc1c[nH]c2ccccc12)C(=O)N[C@@H](Cc1c[nH]c2ccccc12)C(=O)O)[C@@H](C)CC)C(C)C)[C@@H](C)O [WIQPKTKVIPWWWWW]
- MIC [22]: ≥ 78.1 µM
- MIC [23]: 4.88 µM (≈ 10.5 µg/mL)

Structure (SMILES): CC[C@H](C)[C@H](NC(=O)[C@@H](N)Cc1c[nH]c2ccccc12)C(=O)N[C@@H](CCC(N)=O)C(=O)N1CCC[C@H]1C(=O)N[C@@H](CCCCN)C(=O)N[C@H](C(=O)N[C@@H](CCCCN)C(=O)N[C@H](C(=O)N[C@H](C(=O)N1CCC[C@H]1C(=O)O)[C@@H](C)CC)C(C)C)[C@@H](C)O [WIQPKTKVIP]
- MIC [22]: ≥ 625 µM
- MIC [23]: ≥ 156 µM

Structure (SMILES): NC(=O)[C@H](Cc1c[nH]c2ccccc12)NC(=O)[C@H](Cc1c[nH]c2ccccc12)NC(=O)[C@H](Cc1c[nH]c2ccccc12)NC(=O)[C@@H](N)Cc1c[nH]c2ccccc12 [WWWW]
- MIC [16]: ≥ 100 µM

— DBAASP
